Results as given in patent US20240408119A1, “DELIVERY OF THERAPEUTIC ALKALOID COMPOUNDS” (priority 2022, published 2024).
Like-named read-outs stand apart in the source and are kept apart here.

Assays:
[1] = assay type: in vitro ADME, mouse; conditions: 5 μM, 37° C.; for Mouse Plasma Metabolite (%): metabolite (mesembrine) accumulated; for Mouse Plasma Prodrug (%): prodrug remaining
Procedure: (§1) Each test was carried out in duplicate for each time point; 0 min, 15 min, 30 min, 60 min, 120, 240 min. […]

[2] = assay type: in vitro ADME, human; conditions: 5 μM, 37° C.; for Human Plasma Metabolite (%): metabolite (mesembrine) accumulated; for Human Plasma Prodrug (%): prodrug remaining
Procedure: as §1

[3] = Hydrolysis Assay - Condition 1 (SGF); assay type: physicochemical; conditions: SGF with pepsin pH 1.5, 37° C., 0.5 mM
Procedure: 50 μL of compound (10 mM) in DMSO was diluted into 950 μL of Simulated Gastric Fluid (SGF) with pepsin (pH 1.5) to a final concentration of 0.5 mM. The hydrolysis kinetics were conducted at 37° C. and measured by LCMS at a certain time interval.
(§2) The corresponding LCMS chromatogram were recorded and the conversions were calculated by integration of each peak.
(§3) • 1) LCMS spectra were obtained using Agilent 1200G1956A or SHIMADZU LCMS-2020. Standard LCMS conditions were as follows (running time 1.55 minutes): • Acidic condition: Mobile Phase A: 0.0375% TFA in water (v/v). Mobile Phase B: 0.01875% TFA in acetonitrile (v/v); Column: Kinetex EVO C18 30*2.1 mm, 5 μm. • Basic condition: Mobile Phase A: 0.025% NH3·H2O in water (v/v). Mobile Phase B: Acetonitrile; Column: Kinetex EVO C18 2.1×30 mm, 5 μm. • 2) Conversion (%)=peak area 1/(peak area 1+peak area 2)*100%, peak area 1 is the integration of hydrolyzed product, peak area 2 is the integration of starting material.

[4] = Hydrolysis Assay - Condition 2 (DI Water); assay type: physicochemical; conditions: 25° C., 0.5 mM
Procedure: 50 μL of compound (10 mM) in DMSO was diluted into 950 μL of DI water to a final concentration of 0.5 mM. The hydrolysis kinetics were conducted at 25° C. and measured by LCMS at a certain time interval.
as §2, §3

[5] = Plasma Stability Assay (Example A3), rat plasma; assay type: in vitro ADME; conditions: prodrug remaining, 10 μM, 37° C.
Text: (§4) The data is represented in the table below.

[6] = Plasma Stability Assay (Example A3), human plasma; assay type: in vitro ADME; conditions: prodrug remaining, 10 μM, 37° C.
Text: as §4

Row | Structure (SMILES) | Mouse Plasma Prodrug (%) ([1]; 0 min) | Mouse Plasma Prodrug (%) ([1]; 15 min) | Mouse Plasma Prodrug (%) ([1]; 30 min) | Mouse Plasma Prodrug (%) ([1]; 60 min) | Mouse Plasma Prodrug (%) ([1]; 120 min) | Mouse Plasma Prodrug (%) ([1]; 240 min) | Human Plasma Prodrug (%) ([2]; 0 min) | Human Plasma Prodrug (%) ([2]; 15 min) | Human Plasma Prodrug (%) ([2]; 30 min) | Human Plasma Prodrug (%) ([2]; 60 min) | Human Plasma Prodrug (%) ([2]; 120 min) | Human Plasma Prodrug (%) ([2]; 240 min) | Condition 1 Conversion (%) ([3]; 1 min) | Condition 1 Conversion (%) ([3]; 5 min) | Condition 1 Conversion (%) ([3]; 30 min) | Condition 1 Conversion (%) ([3]; 1 h) | Condition 1 Conversion (%) ([3]; 4 h) | Condition 1 Conversion (%) ([3]; 24 h) | Condition 2 Conversion (%) ([4]; 1 min) | Condition 2 Conversion (%) ([4]; 5 min) | other results
1 | COc1ccc([C@@]23CCC(OP(=O)(Oc4ccccc4)Oc4ccccc4)=C[C@@H]2N(C)CC3)cc1OC [Compound 320, [(3aS,7aS)-3a-(3,4-dimethoxyphenyl)-1-methyl-3,4,5,7a-tetrahydro-2H-indol-6-yl]diphenyl phosphate] | 100% | 58.5% | 46.5% | 30.7% | 19.4% | 11.7% | 100% | 95.7% | 98.5% | 95.7% | 98.2% | 95.3% | – | – | – | – | – | – | – | – | Mouse Plasma Metabolite (%) ([1]; 0 min): 11.8%; Mouse Plasma Metabolite (%) ([1]; 15 min): 15.9%; Mouse Plasma Metabolite (%) ([1]; 30 min): 16.9%; Mouse Plasma Metabolite (%) ([1]; 60 min): 18.6%; Mouse Plasma Metabolite (%) ([1]; 120 min): 19.1%; Mouse Plasma Metabolite (%) ([1]; 240 min): 18.9%; Human Plasma Metabolite (%) ([2]; 0 min): 7.6%; Human Plasma Metabolite (%) ([2]; 15 min): 8.0%; Human Plasma Metabolite (%) ([2]; 30 min): 8.5%; Human Plasma Metabolite (%) ([2]; 60 min): 8.6%; Human Plasma Metabolite (%) ([2]; 120 min): 9.4%; Human Plasma Metabolite (%) ([2]; 240 min): 10.4%
2 | COc1ccc([C@@]23CCC(OC(=O)N(C)C)=C[C@@H]2N(C)CC3)cc1OC [Compound 324, [(3aS,7aS)-3a-(3,4-dimethoxyphenyl)-1-methyl-3,4,5,7a-tetrahydro-2H-indol-6-yl] N,N-dimethylcarbamate] | 100.0% | 97.4% | 94.4% | 94.9% | 92.6% | 88.9% | 100.0% | 98.2% | 98.7% | >99% | >99% | 96.5% | 0% | 0% | 0% | 0% | 0% | 0% | 0% | 0% | Condition 2 Conversion (%) ([4]; 30 min): 0%; Condition 2 Conversion (%) ([4]; 1 h): 0%; Condition 2 Conversion (%) ([4]; 4 h): 0%; Condition 2 Conversion (%) ([4]; 24 h): 0%
3 | CCN(C)C(=O)OC1=C[C@@H]2N(C)CC[C@]2(c2ccc(OC)c(OC)c2)CC1 [Compound 326, [(3aS,7aS)-3a-(3,4-dimethoxyphenyl)-1-methyl-3,4,5,7a-tetrahydro-2H-indol-6-yl] N-ethyl-N-methyl-carbamate] | 100.0% | >99% | 96.6% | >99% | >99% | 98.5% | 100.0% | 98.2% | 99.9% | 98.4% | >99% | 93.9% | 0% | 0% | 0% | 0% | 0% | 0% | 0% | 0% | Condition 2 Conversion (%) ([4]; 30 min): 0%; Condition 2 Conversion (%) ([4]; 1 h): 0%; Condition 2 Conversion (%) ([4]; 4 h): 0%; Condition 2 Conversion (%) ([4]; 24 h): 0%
4 | COc1ccc([C@@]23CCC(OC(=O)N4CCN(C)CC4)=C[C@@H]2N(C)CC3)cc1OC [Compound 327, [(3aS,7aS)-3a-(3,4-dimethoxyphenyl)-1-methyl-3,4,5,7a-tetrahydro-2H-indol-6-yl]4-methylpiperazine-1-carboxylate] | 100% | >99% | >99% | >99% | >99% | >99% | 100% | >99% | 98.9% | >99% | >99% | 94.4% | 0% | 0% | 0% | 0% | 0% | 0% | 0% | 0% | Condition 2 Conversion (%) ([4]; 30 min): 0%; Condition 2 Conversion (%) ([4]; 1 h): 0%; Condition 2 Conversion (%) ([4]; 4 h): 0%; Condition 2 Conversion (%) ([4]; 24 h): 0%
5 | COc1ccc([C@@]23CCC(OP(=O)(O)O)=C[C@@H]2N(C)CC3)cc1OC [Compound 359, [(3aS,7aS)-3a-(3,4-dimethoxyphenyl)-1-methyl-3,4,5,7a-tetrahydro-2H-indol-6-yl] dihydrogen phosphate] | 100% | >99% | 82.7% | 79.0% | 50.7% | 59.1% | 100% | 69.0% | 65.1% | 50.4% | 32.8% | 25.6% | – | – | – | – | – | – | – | – | Mouse Plasma Metabolite (%) ([1]; 0 min): 0.0%; Mouse Plasma Metabolite (%) ([1]; 15 min): 0.0%; Mouse Plasma Metabolite (%) ([1]; 30 min): 0.0%; Mouse Plasma Metabolite (%) ([1]; 60 min): 0.0%; Mouse Plasma Metabolite (%) ([1]; 120 min): 0.0%; Mouse Plasma Metabolite (%) ([1]; 240 min): 0.0%; Human Plasma Metabolite (%) ([2]; 0 min): 0.0%; Human Plasma Metabolite (%) ([2]; 15 min): 0.0%; Human Plasma Metabolite (%) ([2]; 30 min): 0.0%; Human Plasma Metabolite (%) ([2]; 60 min): 0.0%; Human Plasma Metabolite (%) ([2]; 120 min): 15.7%; Human Plasma Metabolite (%) ([2]; 240 min): 23.0%
6 | COc1ccc([C@@]23CCC(OP(=O)(O)OCOC(=O)OC(C)C)=C[C@@H]2N(C)CC3)cc1OC [Compound 410, [[(3aS,7aS)-3a-(3,4-dimethoxyphenyl)-1-methyl-3,4,5,7a-tetrahydro-2H-indol-6-yl]oxy-hydroxy-phosphoryl]oxymethyl isopropyl carbonate] | – | – | – | – | – | – | – | – | – | – | – | – | – | – | – | – | – | – | – | – | Rat Plasma Prodrug (%) ([5]; 0 min): 100.0%; Rat Plasma Prodrug (%) ([5]; 10 min): 63.0%; Rat Plasma Prodrug (%) ([5]; 30 min): 25.4%; Rat Plasma Prodrug (%) ([5]; 60 min): 7.1%; Rat Plasma Prodrug (%) ([5]; 120 min): 0.52%; Rat Plasma Prodrug (%) ([5]; 240 min): 0.01%; Human Plasma Prodrug (%) ([6]; 0 min): 100.0%; Human Plasma Prodrug (%) ([6]; 10 min): 96.3%; Human Plasma Prodrug (%) ([6]; 30 min): 98.8%; Human Plasma Prodrug (%) ([6]; 60 min): 92.7%; Human Plasma Prodrug (%) ([6]; 120 min): 88.2%; Human Plasma Prodrug (%) ([6]; 240 min): 75.5%
